Laboratory results as given in ChEMBL document CHEMBL1201862, “PubChem BioAssay data set” (2004).
Activity calls are given as the source filed them. For most assays here, no stated cut-off is given here; in the data, actives have a measured IC50 and inactives only a lower limit.

Assays:
[1] = Trypanosoma cruzi growth suppression in host cells – NIH3T3 host cells, beta-gal luminescence, confirmation (AID 2044); type: functional, cell-based;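 further: intracellular parasites grown in NIH/3T3 mouse fibroblasts as host cells; luminescent beta-galactosidase reporter signal from transgenic T. cruzi replicating inside host cells; inhibitors lower the luminescence signal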
[2] = microbe, parasite or virus in culture; type: functional; conditions: Mycobacterium tuberculosis
[3] = molecular target: Latent membrane protein 1 (Human herpesvirus 4 (strain B95-8), UniProt P03230); assay: LMP1 TES1 pathway selectivity over dsRED control – imaging, HEK293T, dual-color eGFP/dsRED, cherry-picks, selectivity assay for LMP1 NF-kB inhibitor project, dose response (AID 588398); type: functional, cell-based
Sequence of Latent membrane protein 1 (P03230 whole entry): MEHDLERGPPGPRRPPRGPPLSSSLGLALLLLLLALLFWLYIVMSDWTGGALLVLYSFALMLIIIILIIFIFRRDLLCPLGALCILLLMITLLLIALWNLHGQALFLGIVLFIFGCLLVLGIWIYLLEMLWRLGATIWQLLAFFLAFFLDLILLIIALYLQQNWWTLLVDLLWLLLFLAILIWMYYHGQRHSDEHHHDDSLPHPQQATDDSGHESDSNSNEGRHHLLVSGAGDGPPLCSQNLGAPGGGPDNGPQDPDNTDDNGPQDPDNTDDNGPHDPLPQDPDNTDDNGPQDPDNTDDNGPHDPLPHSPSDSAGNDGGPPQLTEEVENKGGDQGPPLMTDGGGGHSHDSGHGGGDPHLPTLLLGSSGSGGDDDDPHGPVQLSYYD

INS1 = assay: INS-1E survival protection against cytokine death – cell-based, luminescence, retest, dose response (AID 449756); type: functional; conditions: Rattus norvegicus;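 further: cell death triggered by IL-1 beta plus TNF-alpha plus IFN-gamma mixture; protective hits raise ATP signal compared with cytokine alone wells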
[4] = NIH3T3 cell viability loss – ATP luminescence, mouse fibroblasts, counter-screen, dose response (AID 2010); type: functional, cell-based;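 further: cells exposed to compound for about 90 hours before reading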
HEK293 = assay: EBV LMP1 TES2 canonical NF-kB signalling blockers – cell-based, HEK293, luciferase, cherry-pick, dose response (AID 588343); type: functional; conditions: Homo sapiens
Caspase-3 [5] = molecular target: T1, Caspase-3 (Homo sapiens, UniProt P42574); assay: inhibition of recombinant caspase-3 activity – biochemical, luminescence, set 2, selectivity assay for SENP protease inhibitor project, SAR follow-up (AID 588599); type: functional
T1 sequence (P42574 whole entry): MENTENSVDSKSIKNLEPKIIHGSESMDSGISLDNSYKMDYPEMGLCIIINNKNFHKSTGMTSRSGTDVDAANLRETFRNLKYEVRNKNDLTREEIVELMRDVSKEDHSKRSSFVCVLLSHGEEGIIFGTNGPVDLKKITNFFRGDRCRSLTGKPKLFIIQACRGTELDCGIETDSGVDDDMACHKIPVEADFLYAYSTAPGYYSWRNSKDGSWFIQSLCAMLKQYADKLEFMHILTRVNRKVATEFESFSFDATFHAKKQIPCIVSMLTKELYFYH

[6] = molecular target: T2, Sentrin-specific protease 8 (Homo sapiens, UniProt Q96LD8); assay: inhibition of sentrin protease 8 – biochemical, luminescence, set 2, SAR follow-up (AID 588601); type: functional
T2 sequence (Q96LD8 whole entry): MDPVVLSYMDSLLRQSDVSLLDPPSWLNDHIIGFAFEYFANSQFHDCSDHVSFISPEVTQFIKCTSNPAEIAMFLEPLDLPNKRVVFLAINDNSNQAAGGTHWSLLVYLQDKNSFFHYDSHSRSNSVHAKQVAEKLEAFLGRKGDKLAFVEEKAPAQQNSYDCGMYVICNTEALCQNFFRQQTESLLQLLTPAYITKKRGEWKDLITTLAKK

[7] = molecular target: T3, Sentrin-specific protease 7 (Homo sapiens, UniProt Q9BQF6); assay: inhibition of human SENP7 cleavage activity – biochemical, luminescence, set 2, SAR follow-up (AID 588600); type: functional
T3 sequence (Q9BQF6 whole entry): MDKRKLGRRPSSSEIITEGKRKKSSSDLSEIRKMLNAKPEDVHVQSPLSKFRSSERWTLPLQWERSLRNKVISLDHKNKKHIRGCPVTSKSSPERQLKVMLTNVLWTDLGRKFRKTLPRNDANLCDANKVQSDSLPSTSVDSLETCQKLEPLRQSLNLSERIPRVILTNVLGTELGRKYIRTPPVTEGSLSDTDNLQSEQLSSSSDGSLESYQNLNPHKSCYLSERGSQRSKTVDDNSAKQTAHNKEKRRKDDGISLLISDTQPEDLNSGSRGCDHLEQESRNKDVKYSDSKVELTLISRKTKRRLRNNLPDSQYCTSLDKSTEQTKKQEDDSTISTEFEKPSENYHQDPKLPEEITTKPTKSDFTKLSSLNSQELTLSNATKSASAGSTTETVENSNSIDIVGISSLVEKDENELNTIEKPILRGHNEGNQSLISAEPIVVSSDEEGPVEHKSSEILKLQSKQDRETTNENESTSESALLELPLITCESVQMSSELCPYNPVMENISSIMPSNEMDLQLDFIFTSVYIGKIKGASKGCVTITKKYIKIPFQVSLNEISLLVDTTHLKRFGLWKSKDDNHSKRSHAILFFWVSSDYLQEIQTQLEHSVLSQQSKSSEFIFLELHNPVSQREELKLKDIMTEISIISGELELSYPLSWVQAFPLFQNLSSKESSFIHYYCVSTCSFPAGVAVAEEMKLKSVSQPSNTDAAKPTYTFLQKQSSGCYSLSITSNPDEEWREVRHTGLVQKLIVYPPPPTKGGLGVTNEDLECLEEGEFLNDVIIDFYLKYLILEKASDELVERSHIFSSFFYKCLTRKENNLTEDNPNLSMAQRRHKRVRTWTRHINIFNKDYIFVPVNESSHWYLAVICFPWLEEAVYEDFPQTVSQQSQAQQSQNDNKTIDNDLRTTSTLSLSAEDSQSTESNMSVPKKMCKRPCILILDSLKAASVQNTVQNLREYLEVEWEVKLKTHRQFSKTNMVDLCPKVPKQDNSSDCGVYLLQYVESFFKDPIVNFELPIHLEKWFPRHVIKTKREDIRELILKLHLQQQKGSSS

[8] = molecular target: T4, Sentrin-specific protease 6 (Homo sapiens, UniProt Q9GZR1); assay: inhibition of human SENP6 catalytic domain – biochemical, luminescence, set 2, SAR follow-up (AID 588598); type: functional
T4 sequence (Q9GZR1 whole entry): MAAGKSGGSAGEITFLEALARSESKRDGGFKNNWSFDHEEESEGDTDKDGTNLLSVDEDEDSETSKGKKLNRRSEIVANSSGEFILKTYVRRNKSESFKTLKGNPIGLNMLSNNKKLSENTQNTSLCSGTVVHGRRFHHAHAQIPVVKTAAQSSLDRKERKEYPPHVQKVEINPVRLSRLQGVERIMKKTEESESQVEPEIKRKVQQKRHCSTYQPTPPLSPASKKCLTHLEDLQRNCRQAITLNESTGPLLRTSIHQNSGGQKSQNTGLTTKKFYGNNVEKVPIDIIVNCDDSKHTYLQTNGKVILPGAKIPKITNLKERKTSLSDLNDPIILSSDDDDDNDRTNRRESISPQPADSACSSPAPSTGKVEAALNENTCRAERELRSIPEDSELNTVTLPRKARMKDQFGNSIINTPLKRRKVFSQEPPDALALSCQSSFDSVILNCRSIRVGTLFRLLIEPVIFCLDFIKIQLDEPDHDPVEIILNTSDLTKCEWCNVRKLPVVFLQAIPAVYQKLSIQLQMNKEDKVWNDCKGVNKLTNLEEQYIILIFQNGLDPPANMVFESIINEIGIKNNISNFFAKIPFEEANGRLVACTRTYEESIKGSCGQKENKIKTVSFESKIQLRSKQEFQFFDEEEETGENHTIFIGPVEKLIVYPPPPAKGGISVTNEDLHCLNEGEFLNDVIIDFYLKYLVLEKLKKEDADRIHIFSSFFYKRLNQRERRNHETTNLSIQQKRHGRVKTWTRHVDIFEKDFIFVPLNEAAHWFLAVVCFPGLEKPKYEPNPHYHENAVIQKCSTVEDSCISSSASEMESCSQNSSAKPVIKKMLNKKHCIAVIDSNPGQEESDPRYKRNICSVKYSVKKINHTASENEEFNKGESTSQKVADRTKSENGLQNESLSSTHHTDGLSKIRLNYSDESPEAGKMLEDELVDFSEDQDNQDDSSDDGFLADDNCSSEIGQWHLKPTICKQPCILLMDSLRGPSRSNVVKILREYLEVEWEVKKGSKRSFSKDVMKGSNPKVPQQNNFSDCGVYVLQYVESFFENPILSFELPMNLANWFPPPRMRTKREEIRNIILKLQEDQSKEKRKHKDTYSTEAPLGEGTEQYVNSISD

[9] = molecular target: T2, Sentrin-specific protease 8; assay: inhibition of human SENP8 cleavage activity – biochemical, luminescence, SAR follow-up (AID 504501); type: functional
[10] = molecular target: T3, Sentrin-specific protease 7; assay: inhibition of human SENP7 cleavage activity – biochemical, luminescence, SAR follow-up (AID 504497); type: functional
[11] = molecular target: T4, Sentrin-specific protease 6; assay: SAR Analysis of small molecule inhibitors of Sentrin-specific protease 6 (SENP6) using a Luminescent assay. [Related pubchem assays (depositor defined):AID2582, AID2599]; type: functional
Caspase-3 [12] = molecular target: T1, Caspase-3; assay: SAR Analysis of small molecule inhibitors of Sentrin-specific proteases (SENPs) using a Caspase-3 Selectivity assay. [Related pubchem assays (depositor defined):AID2540, AID2599, AID434973, AID489001]; type: functional

## Clc1ccc(SCc2cc(N3CCOCC3)nc(-c3ccccn3)n2)cc1
[1]
  EC50: 1.51 µM (active)
[2]
  CC50: 19.5 µM (active)
[3]
  AC50: 10.5 µM (active)
INS1
  AC50: 2.57 µM (active)
[4]
  EC50: > 60 µM (not active)
HEK293
  AC50: 12.1 µM (active)

## Cc1ccc(S(=O)(=O)NCCC(=O)N/N=C\c2c[nH]c3ccccc23)cc1
Caspase-3 [5]
  IC50: > 99 µM (inactive)
[6]
  IC50: > 99 µM (inactive)
[7]
  IC50: > 99 µM (inactive)
[8]
  IC50: > 99 µM (inactive)

## COc1cc(Cc2nccc3cc(OC)c(OC)cc23)c(C(=O)c2ccccc2)cc1OC
[9]
  IC50: > 99 µM (inactive)
[10]
  IC50: > 99 µM (inactive)
[11]
  IC50: 50.9 µM (active)
Caspase-3 [12]
  IC50: 71.6 µM (active)
